This note sets out measurements from patent EP4755886A1 (Chengdu Chipscreen Pharmaceutical Ltd., priority 2023, dated 2025).

One assay deals with wild-type HCT-116 cells. The experiment in a line: Cell proliferation (MTS), wild-type HCT-116. To be noted: Homo sapiens, 240 h; wild-type HCT-116, 10 days with compound, MTS reading; read-out: IC50 HCT116 WT. Format: cell-based. The protocol:
(§1) MTAP^-/- HCT-116 and wild-type HCT-116 cell strains were cultured in complete medium McCoy's 5A (Gibco, 16600082)/10% FBS (Gibco, 10099141C)/1% p/s (Gibco, 15140122) to evaluate the enhanced inhibitory effect of the compounds against the proliferation selectivity of MTAP^-/- HCT-116 cells. On day 0, MTAP^-/- HCT-116 cells or wild-type HCT-116 cells were added to a 96-well cell culture plate (Corning, 3599) at 100 cells/well, and the plate was incubated in an incubator at 37 °C with 5% CO2. The compound was diluted in a 3-fold gradient with DMSO (Sigma, D5879) (initial concentration: 20 µM, 3-fold dilution, 8 concentration points in total). On day 1, the compound was diluted to multiple concentration points, and the cells were treated separately and incubated in the incubator at 37 °C with 5% CO2 for another 10 days. On Day 11, 20 µL of MTS (CellTiter 96® AQueous One Solution Cell Proliferation Assay) (Promega, G3581) was added to each well. […] In the formula, Y represents the inhibition rate, X represents the logarithm of the compound concentration, Top represents the maximum response (the inhibition rate at the maximum compound concentration), Bottom represents the baseline response (the inhibition rate where the compound concentration was 0), Hill Slope represents the slope of the IC50 curve, and IC50 represents the half maximal inhibitory concentration. Table 1. IC50 (µM)

A further assay deals with MTAP^-/- HCT-116 cells. The experiment in a line: Cell proliferation (MTS), MTAP-/- HCT-116. Format: cell-based, human. To be noted: for Selectivity: HCT116 WT IC50 relative to HCT116 MTAP-/- IC50; for IC50: Homo sapiens, 240 h, MTAP-/- HCT-116, 10 days with compound, MTS reading, read-out: IC50 HCT116 MTAP-/-.
Text: The colon cancer cell strain HCT-116 (purchased from Nanjing Cobioer) was co-transfected with the gene editing tool CRISPR/Cas9 and sgRNA, and the MTAP^-/- HCT-116 cell strain with biallelic inactivation of MTAP was obtained by assays such as Western Blotting and Sanger sequencing. The MTAP^-/- HCT-116 cell strain was used for compound selectivity screening and evaluation based on the synergistic mechanism of MTAP deletion and PRMT5, including a symmetric dimethylarginine (SDMA) level test, a cell proliferation test, and the like.
as §1, with “On” for “MTAP^-/- HCT-116 and wild-type HCT-116 cell strains were cultured in complete medium McCoy's 5A (Gibco, 16600082)/10% FBS (Gibco, 10099141C)/1% p/s (Gibco, 15140122) to evaluate the enhanced inhibitory effect of the compounds against the proliferation selectivity of MTAP^-/- HCT-116 cells. On”, “concentration.” for “concentration. Table 1. IC50 (µM)”

As to `CN(C(=O)c1cc2c(cc1Cl)nc(N)c1cnn(C)c12)C1COc2cc(C#Cc3cnn(C)c3)ccc21` (stereo not drawn) [Compound 9, 4-amino-7-chloro-N,1-dimethyl-N-(6-((1-methyl-1H-pyrazol-4-yl)ethynyl)-2,3-dihydrobenzofuran-3-yl)-1H-pyrazolo[4,3-c]quinoline-8-carboxamide], the IC50 in the assay on wild-type HCT-116 cells is 97.7 nM. Besides, in the assay on MTAP^-/- HCT-116 cells, the Selectivity worked out at 109 and the IC50 is 0.9 nM.
For `Cc1cc2nc(N)c3cnn(C)c3c2cc1C(=O)N(C)C1COc2cc(C#Cc3cnn(C)c3)ccc21` (stereo not drawn) [Compound 10, 4-amino-N,1,7-trimethyl-N-(6-((1-methyl-1H-pyrazol-4-yl)ethynyl)-2,3-dihydrobenzofuran-3-yl)-1H-pyrazolo[4,3-c]quinoline-8-carboxamide], in that order: 162 nM, 81 and 2 nM.
As to `Cc1cc2nc(N)c3cnn(C)c3c2cc1C(=O)N(C)[C@@H]1COc2cc(C#Cc3cnn(C)c3)ccc21` [Compound 10A, (S)-4-amino-N,1,7-trimethyl-N-(6-((1-methyl-1H-pyrazol-4-yl)ethynyl)-2,3-dihydrobenzofuran-3-yl)-1H-pyrazolo[4,3-c]quinoline-8-carboxamide], in the assay on wild-type HCT-116 cells, the IC50 was determined as 28 nM. Further, in the assay on MTAP^-/- HCT-116 cells, the Selectivity was determined as 56 and the IC50 was determined as 0.5 nM.
In the same order, the values of `Cc1cc2nc(N)c3cnn(C)c3c2cc1C(=O)N(C)C1COc2cc(C#Cc3cnn(C4CC4)c3)ccc21` (stereo not drawn) [Compound 11, 4-amino-N-(6-((1-cyclopropyl-1H-pyrazol-4-yl)ethynyl)-2,3-dihydrobenzofuran-3-yl)-N,1,7-trimethyl-1H-pyrazolo[4,3-c]quinoline-8-carboxamide] are 185 nM, 62 and 3 nM.
For `CN(C(=O)c1cc2c(cc1F)nc(N)c1cnn(C)c12)C1COc2cc(C#Cc3cnn(C4CC4)c3)ccc21` (stereo not drawn) [Compound 12, 4-amino-N-(6-((1-cyclopropyl-1H-pyrazol-4-yl)ethynyl)-2,3-dihydrobenzofuran-3-yl)-7-fluoro-N,1-dimethyl-1H-pyrazolo[4,3-c]quinoline-8-carboxamide], in that order: 650 nM, 81 and 8 nM.
As for `CC(C)n1cc(C#Cc2ccc3c(c2)OCC3N(C)C(=O)c2cc3c(cc2F)nc(N)c2cnn(C)c23)cn1` (stereo not drawn) [Compound 13, 4-amino-7-fluoro-N-(6-((1-isopropyl-1H-pyrazol-4-yl)ethynyl)-2,3-dihydrobenzof uran-3-yl)-N,1-dimethyl-1H-pyrazolo[4,3-c]quinoline-8-carboxamide], in the assay with wild-type HCT-116 cells, the IC50 turned out to be 607 nM. In addition, in the assay on MTAP^-/- HCT-116 cells, the Selectivity was determined as 55 and the IC50 amounted to 11 nM.
With `CCn1cc(C#Cc2ccc3c(c2)OCC3N(C)C(=O)c2cc3c(cc2F)nc(N)c2cnn(C)c23)cn1` (stereo not drawn) [Compound 17, 4-amino-N-(6-((1-ethyl-1H-pyrazol-4-yl)ethynyl)-2,3-dihydrobenzofuran-3-yl)-7-f luoro-N,1-dimethyl-1H-pyrazolo[4,3-c]quinoline-8-carboxamide], the values for the IC50 with wild-type HCT-116 cells and in the assay on MTAP^-/- HCT-116 cells were 405 nM and 7 nM, respectively. Besides, the Selectivity in the assay on MTAP^-/- HCT-116 cells stood at 58.
For `CN(C(=O)c1cc2c(cc1Cl)nc(N)c1cnn(C)c12)C1COc2cc(C#Cc3ccn(C)n3)ccc21` (stereo not drawn) [Compound 18, 4-amino-7-chloro-N,1-dimethyl-N-(6-((1-methyl-1H-pyrazol-3-yl)ethynyl)-2,3-dihydrobenzofuran-3-yl)-1H-pyrazolo[4,3-c]quinoline-8-carboxamide], in that order: 159 nM, 3 nM and 53.
For `CC(C)n1cc(C#Cc2ccc3c(c2)OCC3N(C)C(=O)c2ccc3nc(N)c4cnn(C)c4c3c2)cn1` (stereo not drawn) [Compound 19, 4-amino-N-(6-((1-isopropyl-1H-pyrazol-4-yl)ethynyl)-2,3-dihydrobenzofuran-3-yl)-N,1-dimethyl-1H-pyrazolo[4,3-c]quinoline-8-carboxamide], in that order: 986 nM, 9.7 nM and 102.
In the same order, the values of `CC(C)n1cc(C#Cc2ccc3c(c2)OC[C@H]3N(C)C(=O)c2ccc3nc(N)c4cnn(C)c4c3c2)cn1` [Compound 19A, (S)-4-amino-N-(6-((1-isopropyl-1H-pyrazol-4-yl)ethynyl)-2,3-dihydrobenzofuran-3-yl)-N,1-dimethyl-1H-pyrazolo[4,3-c]quinoline-8-carboxamide] are 1300 nM, 8.7 nM and 149.
With `CCn1cc(C#Cc2ccc3c(c2)OCC3N(C)C(=O)c2ccc3nc(N)c4cnn(C)c4c3c2)cn1` (stereo not drawn) [Compound 20, 4-amino-N-(6-((1-ethyl-1H-pyrazol-4-yl)ethynyl)-2,3-dihydrobenzofuran-3-yl)-N, 1-dimethyl-1H-pyrazolo[4,3-c]quinoline-8-carboxamide], the IC50 with wild-type HCT-116 cells stood at 948 nM. For the same compound, in the assay with MTAP^-/- HCT-116 cells, the Selectivity is on record as 97 and the IC50 is 9.8 nM.
For `CCn1cc(C#Cc2ccc3c(c2)OC[C@H]3N(C)C(=O)c2ccc3nc(N)c4cnn(C)c4c3c2)cn1` [Compound 20A, (S)-4-amino-N-(6-((1-ethyl-1H-pyrazol-4-yl)ethynyl)-2,3-dihydrobenzofuran-3-yl)-N,1-dimethyl-1H-pyrazolo[4,3-c]quinoline-8-carboxamide], in that order: 1040 nM, 170 and 6.1 nM.
As to `CN(C(=O)c1cc2c(cc1F)nc(N)c1cnn(C)c12)C1COc2cc(C#Cc3ccn(C)n3)ccc21` (stereo not drawn) [Compound 21, 4-amino-7-fluoro-N,1-dimethyl-N-(6-((1-methyl-1H-pyrazol-3-yl)ethynyl)-2,3-dihydrobenzofuran-3-yl)-1H-pyrazolo[4,3-c]quinoline-8-carboxamide], the IC50 in the assay with wild-type HCT-116 cells stood at 365 nM. In addition, in the assay on MTAP^-/- HCT-116 cells, the Selectivity is listed as 52 and the IC50 is 7 nM.
Turning to `CN(C(=O)c1cc2c(cc1F)nc(N)c1cnn(C)c12)[C@@H]1COc2cc(C#Cc3ccn(C)n3)ccc21` [Compound 21A, (S)-4-amino-7-fluoro-N,1-dimethyl-N-(6-((1-methyl-1H-pyrazol-3-yl)ethynyl)-2,3-dihydrobenzofuran-3-yl)-1H-pyrazolo[4,3-c]quinoline-8-carboxamide], in the assay on wild-type HCT-116 cells, the IC50 is 233 nM. For the same compound, in the assay with MTAP^-/- HCT-116 cells, the Selectivity worked out at 86.3 and the IC50 came out at 2.7 nM.
Consider `Cc1c(C#Cc2ccc3c(c2)OCC3N(C)C(=O)c2cc3c(cc2Cl)nc(N)c2cnn(C)c23)cnn1C` (stereo not drawn) [Compound 22, 4-amino-7-chloro-N-(6-((1,5-dimethyl-1H-pyrazol-4-yl)ethynyl)-2,3-dihydrobenzofuran-3-yl)-N,1-dimethyl-1H-pyrazolo[4,3-c]quinoline-8-carboxamide], for which the IC50 in the assay with wild-type HCT-116 cells came to 95 nM. For the same compound, in the assay with MTAP^-/- HCT-116 cells, the Selectivity is recorded as 50 and the IC50 was determined as 1.9 nM.
In the same order, the values of `Cc1c(C#Cc2ccc3c(c2)OC[C@H]3N(C)C(=O)c2cc3c(cc2Cl)nc(N)c2cnn(C)c23)cnn1C` [Compound 22A, (S)-4-amino-7-chloro-N-(6-((1,5-dimethyl-1H-pyrazol-4-yl)ethynyl)-2,3-dihydrobenzofuran-3-yl)-N,1-dimethyl-1H-pyrazolo[4,3-c]quinoline-8-carboxamide] are 55 nM, 55 and 1 nM.
